Test results from patent US20230059136A1, “THE COMPOUNDS AND COMPOSITIONS FOR TREATING CONDITIONS ASSOCIATED WITH NLRP ACTIVITY” (Novartis AG, priority 2018, published 2023).

tested on: IL-1β production in PMA-differentiated THP-1 cells; assay: IL-1β production in PMA-differentiated THP-1 cells stimulated with gramicidin (hTHP-1 assay containing 2% fetal bovine serum); type: cell-based, human; conditions: Homo sapiens, THP-1, Table B2; 2% fetal bovine serum; cells printed as numeric bound; read-out: hTHP-1 IC50 (Average IC50 of compounds in hTHP-1 assay)
How it was run: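 THP-1 cells were differentiated with PMA 20 ng/ml for 16-18 h, then plated at 50,000 cells/well in RPMI with 2% FBS. They were preincubated 1 h with compound (100–0.0017 μM final, 0.37% DMSO), then stimulated with gramicidin 5 μM for 2 h. Supernatant IL-1β was measured by HTRF.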

IC50 [µM]	SMILES
> 30	COc1ccc(C(C)(C)O)cc1[S@](=O)(=NC(=O)Cc1c(C(C)C)cc(C#N)cc1C(C)C)NC#N [Example 377, (S)-N-(cyanamido(5-(2-hydroxypropan-2-yl)-2-methoxyphenyl)(oxo)-λ^6-sulfaneylidene)-2-(4-cyano-2,6-diisopropylphenyl)acetamide]
> 30	CC(C)c1cc2ccccc2c(C(C)C)c1CC(=O)N=[S@@](N)(=O)c1cnc(C(C)(C)O)s1 [Example 389, (R)-N-(amino(2-(2-hydroxypropan-2-yl)thiazol-5-yl) (oxo)-λ^6-sulfaneylidene)-2-(1,3-diisopropylnaphthalen-2-yl)acetamide]
> 30	CC(C)c1cc(C(F)F)cc(C(C)C)c1CC(=O)N=S(=O)(NC(=O)Cc1c(C(C)C)cc(C(F)F)cc1C(C)C)c1ccc(CN(C)C)nc1 (centres unmarked) [Example 390, 2-(4-(Difluoromethyl)-2,6-diisopropylphenyl)-N-((2-(4-(difluoromethyl)-2,6-diisopropylphenyl)acetamido)(6-((dimethylamino)methyl)pyridin-3-yl)(oxo)-λ^6-sulfaneylidene)acetamide]
> 30	CC(C)c1cc2c(cnn2C)c(C(C)C)c1CC(=O)N=S(N)(=O)c1ncc(C(C)(C)O)s1 (centres unmarked) [Example 391, N-(Amino(5-(2-hydroxypropan-2-yl)thiazol-2-yl)(oxo)-λ^6-sulfaneylidene)-2-(4,6-diisopropyl-1-methyl-1H-indazol-5-yl)acetamide]
> 30	CC(C)c1ncnc(C(C)C)c1CC(=O)N=S(N)(=O)c1cnc(C(C)(C)O)s1 (centres unmarked) [Example 392, N-(amino(2-(2-hydroxypropan-2-yl)thiazol-5-yl)(oxo)-λ^6-sulfaneylidene)-2-(4,6-diisopropylpyrimidin-5-yl)acetamide]

same assay, conditions: Homo sapiens, THP-1, Table B2; 2% fetal bovine serum; class symbols; read-out: hTHP-1 IC50 (Average IC50 of compounds in hTHP-1 assay)

IC50 [µM]	SMILES
0.04 to 0.2	CC(C)c1cc(C#N)cc(C(C)C)c1CC(=O)N=[S@@](=O)(NC#N)c1sc(C(C)(C)O)nc1CCO [Example 374, (R)-N-(cyanamido(4-(2-hydroxyethyl)-2-(2-hydroxypropan-2-yl)thiazol-5-yl)(oxo)-λ^6-sulfaneylidene)-2-(4-cyano-2,6-diisopropylphenyl)acetamide]
5 to 30	CC(C)c1cc(C#N)cc(C(C)C)c1CC(=O)N=[S@](=O)(NC#N)c1nc(CO)c(C(C)(C)O)s1 [Example 375, (S)-N-(cyanamido(4-(hydroxymethyl)-5-(2-hydroxypropan-2-yl)thiazol-2-yl)(oxo)-λ^6-sulfaneylidene)-2-(4-cyano-2,6-diisopropylphenyl)acetamide]
0.2 to 1	CC(C)c1cc(C#N)cc(C(C)C)c1CC(=O)N=[S@@](=O)(NC#N)c1nc(CO)c(C(C)(C)O)s1 [Example 376, (R)-N-(cyanamido(4-(hydroxymethyl)-5-(2-hydroxypropan-2-yl)thiazol-2-yl)(oxo)-λ^6-sulfaneylidene)-2-(4-cyano-2,6-diisopropylphenyl)acetamide]
5 to 30	COc1ccc(C(C)(C)O)cc1[S@@](=O)(=NC(=O)Cc1c(C(C)C)cc(C#N)cc1C(C)C)NC#N [Example 378, (R)-N-(cyanamido(5-(2-hydroxypropan-2-yl)-2-methoxyphenyl)(oxo)-λ^6-sylfaneylidene)-2-(4-cyano-2,6-diisopropylphenyl)acetamide]
5 to 30	CNCc1ccc(S(N)(=O)=NC(=O)Cc2c(-c3ccccc3)ccc3c2CCC3)cc1 (centres unmarked) [Example 379, N-(amino(4-((methylamino)methyl)phenyl)(oxo)-λ^6-sulfaneylidene)-2-(5-phenyl-2,3-dihydro-1H-inden-4-yl)acetamide]
1 to 5	CCn1cc(F)c(S(N)(=O)=NC(=O)Cc2c(C(C)C)cc3c(c2C(C)C)COC3)n1 (centres unmarked) [Example 393, N-(amino(1-ethyl-4-fluoro-1H-pyrazol-3-yl)(oxo)-λ^6-sulfaneylidene)-2-(4,6-diisopropyl-1,3-dihydroisobenzofuran-5-yl)acetamide]
